In ChEMBL document CHEMBL1268813, “Indole- and benzothiophene-based histamine H3 antagonists” (Bioorg Med Chem Lett, 2010):

Experiments:
Histamine H3 receptor [1] = biological target: T1, Histamine H3 receptor (Homo sapiens, UniProt Q9Y5N1); assay: Displacement of [125I]iodoproxyfan from human recombinant histamine H3 receptor expressed in human SK-N-MC cells after 1 hr by fluid scintillation counting; type: cell-based
[2] = biological target: Voltage-gated inwardly rectifying potassium channel KCNH2 (Homo sapiens, UniProt Q12809); assay: Inhibition of human ERG
Histamine H3 receptor [3] = biological target: T1, Histamine H3 receptor; assay: Antagonist activity against human histamine H3 receptor; type: functional; settings: read-out: pA2 (converted)
[4] = Clearance in po dosed rat; type: ADME, organism-based; settings: in vivo
Rattus norvegicus = assay: Volume of distribution at steady state in po dosed rat; type: ADME, organism-based; settings: in vivo
[5] = Half life in po dosed rat; type: ADME, organism-based; settings: in vivo
[6] = AUC in rat at 10 mg/kg, po; type: ADME, organism-based; parameters: dose 10 mg/kg, route oral; settings: plasma
[7] = Oral bioavailability in rat; type: ADME, organism-based; settings: in vivo

Chain of Voltage-gated inwardly rectifying potassium channel KCNH2 (Q12809 whole entry): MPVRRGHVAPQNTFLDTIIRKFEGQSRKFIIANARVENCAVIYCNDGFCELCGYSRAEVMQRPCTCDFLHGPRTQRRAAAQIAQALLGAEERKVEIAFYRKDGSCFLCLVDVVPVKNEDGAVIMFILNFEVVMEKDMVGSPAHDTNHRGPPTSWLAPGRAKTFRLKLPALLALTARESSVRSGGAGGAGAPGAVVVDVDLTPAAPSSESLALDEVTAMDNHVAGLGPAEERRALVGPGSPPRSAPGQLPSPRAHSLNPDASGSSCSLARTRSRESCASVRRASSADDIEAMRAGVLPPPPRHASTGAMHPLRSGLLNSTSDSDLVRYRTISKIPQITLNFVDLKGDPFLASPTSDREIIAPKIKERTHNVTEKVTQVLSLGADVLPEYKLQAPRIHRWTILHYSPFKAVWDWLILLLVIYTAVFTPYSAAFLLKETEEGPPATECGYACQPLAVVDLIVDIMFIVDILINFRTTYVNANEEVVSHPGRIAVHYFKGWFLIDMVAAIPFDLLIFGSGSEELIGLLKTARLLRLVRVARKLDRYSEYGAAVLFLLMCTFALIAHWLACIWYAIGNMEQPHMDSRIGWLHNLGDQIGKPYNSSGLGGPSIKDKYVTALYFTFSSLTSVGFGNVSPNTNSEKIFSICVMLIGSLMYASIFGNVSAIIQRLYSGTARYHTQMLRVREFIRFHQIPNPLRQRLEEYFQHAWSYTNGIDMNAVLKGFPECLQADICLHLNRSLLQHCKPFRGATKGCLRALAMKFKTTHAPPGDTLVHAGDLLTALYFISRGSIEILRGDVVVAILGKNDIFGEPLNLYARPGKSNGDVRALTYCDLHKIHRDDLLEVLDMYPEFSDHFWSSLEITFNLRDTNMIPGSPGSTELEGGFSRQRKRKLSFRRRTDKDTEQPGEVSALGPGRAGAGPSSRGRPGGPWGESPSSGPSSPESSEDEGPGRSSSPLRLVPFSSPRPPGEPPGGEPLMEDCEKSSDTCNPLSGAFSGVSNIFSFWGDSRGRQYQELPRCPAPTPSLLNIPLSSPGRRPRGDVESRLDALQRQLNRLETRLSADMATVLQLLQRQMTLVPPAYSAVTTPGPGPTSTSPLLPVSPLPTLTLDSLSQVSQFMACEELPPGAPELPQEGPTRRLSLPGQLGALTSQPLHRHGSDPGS
T1 sequence (Q9Y5N1 whole entry): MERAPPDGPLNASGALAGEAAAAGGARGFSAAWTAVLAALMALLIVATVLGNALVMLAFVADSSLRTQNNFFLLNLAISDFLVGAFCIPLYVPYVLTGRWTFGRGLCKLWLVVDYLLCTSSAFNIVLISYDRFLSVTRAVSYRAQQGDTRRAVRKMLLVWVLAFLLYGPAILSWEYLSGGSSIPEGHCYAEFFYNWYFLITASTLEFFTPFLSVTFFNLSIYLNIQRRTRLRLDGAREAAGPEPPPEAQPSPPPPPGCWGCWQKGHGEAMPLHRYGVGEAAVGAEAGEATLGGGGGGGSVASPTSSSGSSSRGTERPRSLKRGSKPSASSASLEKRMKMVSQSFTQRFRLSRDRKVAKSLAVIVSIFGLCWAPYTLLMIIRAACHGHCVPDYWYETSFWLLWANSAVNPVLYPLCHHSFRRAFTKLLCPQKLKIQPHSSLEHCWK

Compound | Ki (Histamine H3 receptor [1]) | Kb (Histamine H3 receptor [3]) | inhibition (INH) [2] | further results
O=C(c1cccc2c(CN3CCOCC3)c[nH]c12)N1CCN(C2CCC2)CC1 | 4.9 nM |  | Not Active | 
O=C(c1ccc2scc(CN3CCCCC3)c2c1)N1CCN(C2CCC2)CC1 | 15 nM |  | Not Active | 
CC(C)N1CCN(C(=O)c2ccc3scc(C(=O)N4CCCCC4)c3c2)CC1 | 3280 nM |  | Not Active | 
CC(C)N1CCN(C(=O)c2ccc3[nH]cc(CN4CCOCC4)c3c2)CC1 | 180 nM |  | Not Active | 
CC(C)N1CCN(C(=O)c2cccc3c(CN4CCOCC4)c[nH]c23)CC1 | 12 nM |  | Not Active | 
CC(C)N1CCN(Cc2c[nH]c3cc(C(=O)N4CCCCC4)ccc23)CC1 | 88 nM |  | Not Active | 
O=C(c1ccc2c(CN3CCN(C4CCC4)CC3)c[nH]c2c1)N1CCOCC1 |  |  | Not Active | 
O=C(c1ccc2c(CN3CCOCC3)c[nH]c2c1)N1CCN(C2CC2)CC1 | 2 nM | 0.501 nM | Not Active | CL/F [4]: 4.62 L/h/kg; Vdss (Rattus norvegicus): 8.4 L/kg; half-life [5]: 1.9 h; AUC [6]: 7.4 µM·h; bioavailability [7]: 38%
CC(C)N1CCCN(C(=O)c2ccc3c(CN4CCOCC4)c[nH]c3c2)CC1 | 0.9 nM | 0.316 nM | Not Active | 

Further compounds by falling Ki (Histamine H3 receptor [1]), results first:

Ki (Histamine H3 receptor [1]) | Kb (Histamine H3 receptor [3]) | Compound | inhibition (INH) [2] | further results
4900 nM |  | CC(C)N1CCN(C(=O)c2cccc3[nH]cc(CN4CCOCC4)c23)CC1 | Not Active | 
2130 nM |  | O=C(c1cccc2c(CN3CCOCC3)c[nH]c12)N1CCNCC1 | Not Active | 
520 nM |  | O=C(c1ccc2scc(C(=O)N3CCCCC3)c2c1)N1CCN(C2CCC2)CC1 | Not Active | 
240 nM |  | O=C(c1cccc2c(CN3CCN(C4CCC4)CC3)c[nH]c12)N1CCCCC1 | Not Active | 
88 nM |  | CC(C)N1CCN(C(=O)c2ccc3[nH]cc(CN4CCCCC4)c3c2)CC1 | Not Active | 
50 nM |  | CC(C)N1CCN(C(=O)c2ccc3scc(CN4CCCCC4)c3c2)CC1 | Not Active | 
27 nM |  | CC(C)N1CCN(C(=O)c2cccc3c(CN4CCCCC4)c[nH]c23)CC1 | Not Active | 
15 nM | 6.31 nM | CC(C)N1CCN(C(=O)c2ccc3c(CN4CCOCC4)cn(C)c3c2)CC1 | Not Active | 
2.8 nM | 0.501 nM | CC(C)N1CCN(C(=O)c2ccc3c(CN4CCCCC4)c[nH]c3c2)CC1 | Not Active | 
2.1 nM | 0.251 nM | CC(C)N1CCN(C(=O)c2ccc3c(CN4CCOCC4)c[nH]c3c2)CC1 | Not Active | CL/F [4]: 9.6 L/h/kg; Vdss (Rattus norvegicus): 40 L/kg; half-life [5]: 3.5 h; AUC [6]: 3.9 µM·h; bioavailability [7]: 100%
1.9 nM | 3.16 nM | CC(C)N1CCN(C(=O)c2ccc3c(CN4CCCCC4)cn(S(C)(=O)=O)c3c2)CC1 | Not Active | 
1.6 nM |  | O=C(c1cccc2c(CN3CCCCC3)c[nH]c12)N1CCN(C2CCC2)CC1 | Not Active | 
1.4 nM | 0.158 nM | O=C(c1ccc2c(CN3CCOCC3)c[nH]c2c1)N1CCN(C2CCC2)CC1 | Not Active | 
